These are literature values, as cited in paper PMC10177510, “A Multicenter, Open-Label, Phase I/II Study of FN-1501 in Patients with Advanced Solid Tumors” (Cancers, 2023).

Molecules are shown by their SMILES. In brackets after ≈: the same amount, converted by molar mass.

The data set relates to MV-4-11. To be noted: cited from earlier work.

Turning to `CCc1nc(C(N)=O)c(Nc2ccc(N3CCC(N4CCN(C)CC4)CC3)c(OC)c2)nc1NC1CCOCC1` [gilteritinib, reference compound], the half-inhibitory concentration (IC50) is 0.5 ng/mL (≈ 0.905 nM).
